# Like-named read-outs stand apart in the source and are kept apart here.
# What was measured:
# [1] = system: parental HEK293 cells; assay: MTT cell viability assay; format: cell-based, human; details: 24 h
# Procedure: Cells were seeded in poly-L-lysine-coated 96-well plates at a density of 10,000 cells per well. After 24 h, the medium was exchanged, and compounds or the corresponding solvent were added and incubated for another 24 h. Then, the medium was removed, and a fresh medium containing 0.5 mg/mL MTT was added. After 3 h of incubation, supernatants were aspirated, and cells containing formazan crystals were lysed with 100% DMSO. Finally, absorbance of DMSO-dissolved formazan was measured at 560 and 670 nm with a plate reader (Polarstar Omega, BMG Labtech, Germany). The differences of both extinctions were calculated, and values were normalized to a solvent control (0.25% DMSO).
# [2] = system: T1, mouse TRPC3 ortholog; assay: Single-cell [Ca2+]i analysis, fura-2-loaded HEK293 cells transiently overexpressing mouse TRPC3; format: cell-based; details: 50 µM, mean and S.D., n = 215 single cells; basal 311 ± 134 nM
# T1 construct: expressed in transfected cells; host or cells: HEK293, transient
# Procedure: The microfluorometric single-cell [Ca^2+]i analysis was performed on an inverted epifluorescence microscope (Carl Zeiss, Jena, Germany) and calibrated as described. Cells were grown on 25 mm coverslips and loaded with 4 µM fura-2/AM (AAT Bioquest, Sunnyvale, CA, U.S.A.) in HBS containing 0.2% BSA for 30 min at 37 °C. After gently rinsing the coverslips with HBS, coverslips were mounted in a bath chamber and superfused with HBS containing 0.035% BSA.
# [3] = target: T2, TRPC3 (Homo sapiens, UniProt Q13507); assay: Whole-cell patch-clamp recordings in HEK TRPC3-YFP cells; format: cell-based; details: for EC50: n = 12–27 cells
# T2 construct: expressed in transfected cells
# T2 sequence (Q13507 1-848 isoform Q13507-3): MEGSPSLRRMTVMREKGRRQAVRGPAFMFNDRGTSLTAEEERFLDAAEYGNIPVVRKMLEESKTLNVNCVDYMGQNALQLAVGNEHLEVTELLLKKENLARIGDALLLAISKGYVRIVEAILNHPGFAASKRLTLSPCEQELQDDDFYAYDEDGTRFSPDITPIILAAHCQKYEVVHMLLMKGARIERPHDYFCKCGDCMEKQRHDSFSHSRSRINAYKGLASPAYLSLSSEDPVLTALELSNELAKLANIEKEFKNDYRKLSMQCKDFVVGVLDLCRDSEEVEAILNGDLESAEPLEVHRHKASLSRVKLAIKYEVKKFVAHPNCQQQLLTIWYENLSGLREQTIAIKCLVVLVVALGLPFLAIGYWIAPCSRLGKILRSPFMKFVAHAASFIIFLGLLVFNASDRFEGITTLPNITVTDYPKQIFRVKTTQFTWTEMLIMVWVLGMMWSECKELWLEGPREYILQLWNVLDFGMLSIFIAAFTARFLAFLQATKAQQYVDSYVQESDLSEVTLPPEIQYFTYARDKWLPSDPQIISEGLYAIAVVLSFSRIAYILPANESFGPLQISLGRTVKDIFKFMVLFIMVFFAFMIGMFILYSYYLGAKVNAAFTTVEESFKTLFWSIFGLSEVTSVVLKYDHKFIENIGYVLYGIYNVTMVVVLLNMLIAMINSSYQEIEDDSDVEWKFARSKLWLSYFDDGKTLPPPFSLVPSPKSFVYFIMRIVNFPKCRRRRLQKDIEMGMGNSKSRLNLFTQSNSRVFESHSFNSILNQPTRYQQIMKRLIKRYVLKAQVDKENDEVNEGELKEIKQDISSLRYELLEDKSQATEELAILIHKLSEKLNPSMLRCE
# Procedure: The recordings of TRPC3, TRPC6, or TRPC7 membrane currents in HEK293 or PC12 cells were realized by using a Multiclamp 700B amplifier with a Digidata 1440A digitizer controlled by the PClamp 10 software (all Molecular Devices, Sunnyvale, CA, U.S.A.). Recordings were obtained at room temperature either in the whole-cell or in an outside-out configuration as indicated. Cells were seeded as described above, but at lower density, mounted in a chamber (Warner Instruments, Hamden, CT; U.S.A.), placed onto the stage of an inverted microscope, and perfused with required solution. The standard extracellular solution contained 140 mM NaCl, 5 mM CsCl, 2 mM MgCl2, 1 mM CaCl2, 10 mM HEPES, and 0.035% BSA adjusted to pH 7.4 with NaOH. The composition of standard intracellular solution was 140 mM CsCl, 1 mM MgCl2, 5 mM EGTA, and 10 mM HEPES adjusted to pH 7.25 with CsOH; the osmolarity was 295 mOsm l^−1. In outside-out measurements, the pipette solution contained 5 mM EGTA and 1.1 mM CaCl2 to achieve a calculated free Ca^2+ concentration of 100 nM.
# Patch pipettes were pulled from borosilicate glass capillaries BG150F-8P (Science Products, Hofheim, Germany) with a PIP6 pipette puller (HEKA Elektronik, Lambrecht, Germany). […] In all whole-cell measurements, the series resistance was lower than 13 MΩ, and compensated by 70%. If the access was unstable during the experiment (increase in series resistance by more than 15% at the end of the experiment), the cell was omitted from the analysis. To record current/voltage (I/V) curves, voltage ramps (400 mV s^−1) ranging from –100 to +100 mV were applied. Currents were filtered at 3 kHz with a four-pole Bessel filter and sampled at 10 kHz.
# Figure 4 Electrophysiological analysis of artemisinin-induced whole-cell currents in HEKTRPC3-YFP cells. The voltage protocol depicted in the box (duration of 0.8 s) was applied in 1 s intervals, and steady state inward and outward current densities averaged at potentials of –100 or +100 mV as well as voltage ramps (0.4 Vs^−1) were extracted from the data. (A) Current densities at +100 and –100 mV, respectively.
smiles,measurement,setting,value
C[C@@H]1CC[C@H]2[C@@H](C)C(=O)O[C@@H]3O[C@@]4(C)CC[C@@H]1[C@]32OO4 [artemisinin],metabolic activity (MTT test),[1]; 100 µM,slight and statistically significant reduction of metabolic activity
same,metabolic activity (MTT test),[1]; concentrations up to 50 µM,did not reduce the metabolic activity
same,[Ca2+]i reached after stimulation,[2],1140 ± 635 nM
same,"Hill coefficient, outward currents",[3]; +100 mV,2.2
same,EC50,"[3]; +100 mV, read-out: EC50 to activate TRPC3 outward currents",33 µM
same,"Hill coefficient, inward currents",[3]; −100 mV,2.4
same,EC50,"[3]; −100 mV, read-out: EC50 to activate TRPC3 inward currents",25 µM
